The results in this text go back to PubChem BioAssay (NCI).

Where “and” joins values, the source holds several entries; their conditions need not be identical. Equal entries are not always repeated.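 Five concentrations, 48 hours, 96-well plates. Abbreviation: GI50, concentration required for 50% inhibition of growth. TGI: total growth inhibition.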 Where only a bound is given, the exact number is not on record here.

The first assay has as its system MDA-MB-231 breast. Description: growth of human tumour cells (NCI), 48 h.
Regarding `CCOC(=O)Cn1c(C(F)(F)F)nc2nc(Cl)c(Cl)nc21`, the TGI is more than 100 µM.

With `O=C1NC(=NCCc2cccc(F)c2)S/C1=C\c1ccc2ncccc2c1`, the GI50 was more than 25000 nM and the TGI is more than 25 µM.

With `COc1cc2c(c3oc4c(O)cccc4c(=O)c13)CC(C(C)(O)CO)O2` (centres undefined), the TGI is more than 100 µM.

Consider `OCc1cc2ccccc2c2c3c(ccc12)OCO3`, for which the GI50 was 29100 nM and the TGI is 175 µM.

Consider `COc1cc2c(cc1OCCCCN1CCN(CC(=O)Nc3ccc(Cl)cc3C(=O)c3ccccc3Cl)CC1)N=CC1CCCN1C2=O` (centres undefined), for which the GI50 is 251 nM and the TGI turned out to be 0.759 µM.

In the case of `OC1CSSC1Cn1cnc2c(Nc3ccc(OCc4cccc(F)c4)c(Cl)c3)ncnc21` (centres undefined), the GI50 is 986 nM and the TGI stood at 4.53 µM.

The subject of the next assay is MOLT-4 leukemia. Description: growth of human tumour cells (NCI), 48 h.
Take `Cc1cc(N(CCC#N)CCC#N)ccc1N=Nc1ccc(S(N)(=O)=O)cc1`: the TGI was more than 100 µM.

Regarding `Cc1nc2c(ccc3ncccc32)[nH]1`, the TGI is more than 100 µM.

`C1=C2/CC[C@H](Sc3ccccc3)C2C2(CCCCC/1)OCCO2` (some centres undefined) showed a TGI of more than 100 µM.

Regarding `O=C(CCc1nc(=S)[nH][nH]1)Nc1cc(Cl)c(Cl)cc1Cl`, the TGI was more than 100 µM.

In the case of `CN(C)C(=S)N=C(Nc1ccccc1)Nc1ccccc1`, the TGI was more than 100 µM.

`Nc1ccccc1S(=O)(=O)N(CC(=O)O)c1ccccc1` yielded a TGI of more than 100 µM.

`CC1(C)C(=O)/C=C\C(=O)C(C)(C)C2=CC=C(O2)C(C)(C)C(=O)/C=C\C(=O)C(C)(C)C2=CC=C1O2` had a TGI of more than 100 µM.

As to `COc1ccccc1N1C(=O)C2c3[nH]c4ccccc4c3C3CCC(C(C)(C)C)CC3C2C1=O` (centres undefined), the TGI was more than 100 µM.

As to `Cc1cc(NS(=O)(=O)c2ccc(Nc3c4ccccc4nc4c(C(=O)N5CCN(CCOS(C)(=O)=O)CC5)cccc34)cc2)no1`, the TGI was more than 100 µM.

The compound `O=C(O)CCC(NC(=O)c1ccc(Nc2nc3ccccc3nc2-c2cccs2)cc1)C(=O)O` (centres undefined) gave a TGI of more than 100 µM.

As to `COc1cc2ccnc([C@@H](OC(=O)c3ccccc3)c3ccc(OC)c(OC)c3OC)c2cc1OC`, the TGI was more than 100 µM.

The compound `CCn1c(C)nn2c(=O)c3ccccc3nc2c1=O` came in with a TGI of more than 100 µM.

Take `COC(=O)/C(C#N)=C1\NC(=O)c2ccccc21`: the TGI is more than 100 µM.

In turn, `O=C(O)CCNCCCNCCC(=O)O` yielded a TGI of more than 100 µM.

Consider `NC1=NCCC1(c1ccccc1)c1ccccn1` (centres undefined), for which the TGI is more than 100 µM.

In the case of `CCCCCCCCCCCC(=O)OCCOCCOCCOCCOCCOCc1ccccc1`, the TGI was more than 100 µM.

With `CCCCCCCCCCCCCC(=O)OC(/C=C/C(C)C)C(O)C(O)C(OC)C(=O)NC1CCCCN(C)C1=O` (centres undefined), the TGI was 7.54 µM and > 49 µM.

Compound `CCOC(=O)CCC1(C(=O)OCC)CCCCC1=O` (centres undefined) had a TGI of more than 100 µM.

`COC(=O)c1ccccc1NC(=O)C(=O)Cc1nc2c3c(ccc2[nH]c1=O)C(=O)c1ccccc1C3=O` showed a TGI of 99.6 µM.

`CCOC(=O)C(C)(C)Oc1ccc2c(-c3ccccc3)cc(=O)oc2c1` came in with a TGI of 54.6 µM.

Consider `CCCC1C(=O)CCc2c(OC)ccc(OC)c21` (centres undefined), for which the TGI is more than 100 µM.

The compound `CCOC(=O)Cn1c(C(F)(F)F)nc2nc(Cl)c(Cl)nc21` returned a TGI of 97.6 µM.

In the case of `O=C1NC(=NCCc2cccc(F)c2)S/C1=C\c1ccc2ncccc2c1`, the GI50 was 8.72 µM and the TGI was more than 25 µM.

`COc1cc2c(c3oc4c(O)cccc4c(=O)c13)CC(C(C)(O)CO)O2` (centres undefined) yielded a TGI of 62.2 µM.

Turning to `OCc1cc2ccccc2c2c3c(ccc12)OCO3`, the GI50 was 28.5 µM and the TGI was 82.3 µM.

On to `COc1cc2c(cc1OCCCCN1CCN(CC(=O)Nc3ccc(Cl)cc3C(=O)c3ccccc3Cl)CC1)N=CC1CCCN1C2=O` (centres undefined), for which the GI50 is 0.209 µM and the TGI came to 0.512 µM.

With `OC1CSSC1Cn1cnc2c(Nc3ccc(OCc4cccc(F)c4)c(Cl)c3)ncnc21` (centres undefined), the GI50 was 0.441 µM and the TGI stood at 1.38 µM.

Another assay has as its system ACHN renal. Description: growth of human tumour cells (NCI), 48 h.
On to `Cc1c(C(=O)CC(=O)C(=O)Nc2ccccc2C(F)(F)F)[n+](=O)c2ccccc2n1[O-]`, for which the TGI is more than 100 µM.

With `Cc1cc(N(CCC#N)CCC#N)ccc1N=Nc1ccc(S(N)(=O)=O)cc1`, the TGI was more than 100 µM.

`Cc1nc2c(ccc3ncccc32)[nH]1` registered a TGI of more than 100 µM.

Consider `C1=C2/CC[C@H](Sc3ccccc3)C2C2(CCCCC/1)OCCO2` (some centres undefined), for which the TGI was determined as 85.9 µM.

As to `O=C(CCc1nc(=S)[nH][nH]1)Nc1cc(Cl)c(Cl)cc1Cl`, the TGI was more than 100 µM.

In the case of `CN(C)C(=S)N=C(Nc1ccccc1)Nc1ccccc1`, the TGI is more than 100 µM.

For `Nc1ccccc1S(=O)(=O)N(CC(=O)O)c1ccccc1`, the TGI was more than 100 µM.

`CC1(C)C(=O)/C=C\C(=O)C(C)(C)C2=CC=C(O2)C(C)(C)C(=O)/C=C\C(=O)C(C)(C)C2=CC=C1O2`: the TGI is more than 100 µM.

In turn, `COc1ccccc1N1C(=O)C2c3[nH]c4ccccc4c3C3CCC(C(C)(C)C)CC3C2C1=O` (centres undefined) registered a TGI of more than 100 µM.

As for `Cc1cc(NS(=O)(=O)c2ccc(Nc3c4ccccc4nc4c(C(=O)N5CCN(CCOS(C)(=O)=O)CC5)cccc34)cc2)no1`, the TGI is more than 100 µM.

Regarding `O=C(O)CCC(NC(=O)c1ccc(Nc2nc3ccccc3nc2-c2cccs2)cc1)C(=O)O` (centres undefined), the TGI is more than 100 µM.

Compound `COc1cc2ccnc([C@@H](OC(=O)c3ccccc3)c3ccc(OC)c(OC)c3OC)c2cc1OC` showed a TGI of more than 100 µM.

In turn, `CCn1c(C)nn2c(=O)c3ccccc3nc2c1=O` showed a TGI of more than 100 µM.

For `COC(=O)/C(C#N)=C1\NC(=O)c2ccccc21`, the TGI is more than 100 µM.

In turn, `O=C(O)CCNCCCNCCC(=O)O` came in with a TGI of more than 100 µM.

For the compound `CC(=O)[CH-]C(=O)c1ccccc1.CC(=O)[CH-]C(=O)c1ccccc1.CN(C)c1ccc([O-])cc1.CN(C)c1ccc([O-])cc1.Cl.[Ti+4]`, the GI50 is 16.9 µM and the TGI is more than 31.6 µM.

`NC1=NCCC1(c1ccccc1)c1ccccn1` (centres undefined) showed a TGI of more than 100 µM.

For the compound `CCCCCCCCCCCC(=O)OCCOCCOCCOCCOCCOCc1ccccc1`, the TGI is more than 100 µM.

Turning to `CCCCCCCCCCCCCC(=O)OC(/C=C/C(C)C)C(O)C(O)C(OC)C(=O)NC1CCCCN(C)C1=O` (centres undefined), the TGI was 5.14 µM and > 49 µM.

`CCOC(=O)CCC1(C(=O)OCC)CCCCC1=O` (centres undefined) registered a TGI of more than 100 µM.

The compound `COC(=O)c1ccccc1NC(=O)C(=O)Cc1nc2c3c(ccc2[nH]c1=O)C(=O)c1ccccc1C3=O` gave a TGI of more than 100 µM.

`CCOC(=O)C(C)(C)Oc1ccc2c(-c3ccccc3)cc(=O)oc2c1` displayed a TGI of more than 100 µM.
